pIC50: −log10 of the molar value. Where two headings read alike, the source gives them in different places.
Legend:
Target C = test: HiBiT protein abundance assay, Target C (K562 HiBiT knock-in); assay type: cell-based, human; conditions: HiBiT knock-in K562 cells, 24 hours, top dose 10 μM
Procedure, shortened: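 K562 HiBiT knock-in cells (10000/well) were treated 24 h at 37° C with a 10-point 3-fold dilution series (top 10 μM final, ≤0.25% DMSO). HiBiT luminescence was read after lytic LgBiT detection. Percent response used unmodified K562 and DMSO-treated knock-in controls, and IC50 came from a four-parameter fit at 50% of untreated.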

K562 cells = test: Cell Titer Glo 2.0 cell viability (toxicity) assay, K562; conditions: 500 cells/well, 72 hours
SMN2 mRNA = test: RT-qPCR splicing assay, SMN2 mRNA; assay type: cell-based, human; conditions: Homo sapiens, canonical junction qPCR panel, Table 4; read-out: SMN2 IC50 (decrease in CJ mRNA levels)
Procedure, shortened: (§1)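 Canonical and alternative-exon junction isoforms were quantified by RT-qPCR in cell lysates, with ΔCt against a housekeeper (GAPDH/GUSB/PPIA), then ΔΔCt vs DMSO, converted to 2^(−ΔΔCt) and percent response. K562 or A673 cells were exposed for 24 h to 11 concentrations (3-fold, top final 10 uM).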

MYB mRNA = test: RT-qPCR splicing assay, MYB mRNA canonical (CJ) and alternative (AJ) junction; assay type: cell-based, human; conditions: Homo sapiens; for AC50: MYB alternative junction mRNA, read-out: MYB AJ (increase in AJ mRNA, AC50)
Procedure, shortened: as §1

HTT = test: HiBiT protein abundance assay, HTT (K562 HiBiT knock-in); assay type: cell-based, human; conditions: HiBiT knock-in K562 cells, 24 hours, top dose 10 μM
Procedure, shortened: (§2)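 K562 HiBiT knock-in, 24 h, 37 °C, top 10 μM final, 3-fold ×10, DMSO ≤0.25%. Lytic HiBiT luminescence; PC = parental K562, NC = DMSO; 4PL IC50.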

MYB = test: HiBiT protein abundance assay, MYB (K562 HiBiT knock-in); assay type: cell-based, human; conditions: HiBiT knock-in K562 cells, 24 hours, top dose 10 μM
Procedure, shortened: as §2

HTT mRNA = test: RT-qPCR splicing assay, HTT mRNA canonical (CJ) and alternative (AJ) junction; assay type: cell-based, human; conditions: Homo sapiens; for AC50: HTT alternative junction mRNA, read-out: HTT AJ (increase in AJ mRNA, AC50)
Procedure, shortened: as §1

[1] = MYB canonical junction mRNA, RT-qPCR, read-out: MYB CJ (decrease in CJ mRNA levels, IC50)
[2] = canonical junction qPCR panel, Table 4, read-out: MYB IC50 (decrease in CJ mRNA levels)
[3] = HTT canonical junction mRNA, RT-qPCR, read-out: HTT CJ (decrease in CJ mRNA levels, IC50)
[4] = canonical junction qPCR panel, Table 4, read-out: HTT IC50 (decrease in CJ mRNA levels)

Compound	pIC50 (Target C)	Effect of Exemplary Compounds on Cell Viability, K562 (K562 cells)	pIC50 (SMN2 mRNA)	AC50 (MYB mRNA; RT-qPCR)	pIC50 (MYB mRNA; [1])	pIC50 (MYB mRNA; [2])	pIC50 (HTT)	pIC50 (MYB)	AC50 (HTT mRNA; RT-qPCR)	pIC50 (HTT mRNA; [3])	pIC50 (HTT mRNA; [4])
Cc1c(O)c(-c2ccc3nc(N4CCC(NC5(C)CC5)C4)ccc3n2)cc2cn(C)nc12 (stereo not drawn) [Compound 224]	> 7.00	B (B represents 100-1000 nM)	> 7.00	< 100 nM	> 7.00	> 7.00	> 7.00	> 7.00	< 100 nM	> 7.00	> 7.00
Cc1c(O)c(-c2ccc3nc(N4CC[C@@H](NC5(C)CC5)C4)ccc3n2)cc2cn(C)nc12 [Compound 225]	> 7.00	B (B represents 100-1000 nM)	> 7.00	< 100 nM	> 7.00	> 7.00	> 7.00	> 7.00	< 100 nM	> 7.00	> 7.00
Cc1c(O)c(-c2ccc3nc(N4CC[C@H](NC5(C)CC5)C4)ccc3n2)cc2cn(C)nc12 [Compound 226]	> 7.00	B (B represents 100-1000 nM)	> 7.00	100 to 1000 nM	> 7.00	> 7.00	> 7.00	> 7.00	< 100 nM	> 7.00	> 7.00
Cc1nc2cc(O)c(-c3ccc4nc(N5CCC(NC6CCC6)C5)ccc4n3)cc2o1 (stereo not drawn) [Compound 228]	6.00 to 7.00	B (B represents 100-1000 nM)	> 7.00	< 100 nM	6.00 to 7.00	6.00 to 7.00	> 7.00	> 7.00	< 100 nM	> 7.00	> 7.00
Cc1nc2cc(O)c(-c3ccc4nc(N5CC[C@@H](NC(C)C)C5)ccc4n3)cc2o1 [Compound 232]	> 7.00	A (A represents <100 nM)	> 7.00	< 100 nM	> 7.00	> 7.00	> 7.00	> 7.00	< 100 nM	> 7.00	> 7.00
Cc1nc2cc(O)c(-c3ccc4nc(N5CC[C@H](NC(C)C)C5)ccc4n3)cc2o1 [Compound 233]	> 7.00	B (B represents 100-1000 nM)	> 7.00	< 100 nM	> 7.00	> 7.00	> 7.00	> 7.00	< 100 nM	> 7.00	> 7.00
Cc1nc2cc(O)c(-c3ccc4nc(N5CCC(N)C5)ccc4n3)cc2o1 (stereo not drawn) [Compound 234]	> 7.00	A (A represents <100 nM)	> 7.00	< 100 nM	6.00 to 7.00	6.00 to 7.00	> 7.00	> 7.00	< 100 nM	6.00 to 7.00	6.00 to 7.00
Cn1cc2cc(-c3ccc4nc(N5CCC(N)C5)ccc4n3)c(O)c(F)c2n1 (stereo not drawn) [Compound 238]	> 7.00	A (A represents <100 nM)	> 7.00	< 100 nM	> 7.00	> 7.00	> 7.00	> 7.00	< 100 nM	> 7.00	> 7.00
Cn1cc2cc(-c3ccc4nc(N5CC[C@@H](NCC(F)(F)F)C5)ccc4n3)c(O)cc2n1 [Compound 245]	< 5.00	D (D represents greater than 10 μM in K562 cells)	5.00 to 6.00	> 10000 nM	< 5.00	< 5.00	5.00 to 6.00	< 5.00	> 10000 nM	< 5.00	< 5.00
Cn1cc2cc(-c3ccc4nc(N5CC[C@@H](N[C@H]6C[C@H](F)C6)C5)ccc4n3)c(O)cc2n1 [Compound 246]	> 7.00	B (B represents 100-1000 nM)	> 7.00	< 100 nM	> 7.00	> 7.00	> 7.00	> 7.00	< 100 nM	> 7.00	> 7.00
Cn1cc2cc(-c3ccc4nc(N5CC[C@H](N[C@H]6C[C@H](F)C6)C5)ccc4n3)c(O)cc2n1 [Compound 247]	6.00 to 7.00	B (B represents 100-1000 nM)	> 7.00	< 100 nM	> 7.00	> 7.00	6.00 to 7.00	6.00 to 7.00	100 to 1000 nM	> 7.00	> 7.00
Cc1nc2c(F)c(O)c(-c3ccc4nc(N5CC[C@@H](NC6CC6)C5)ccc4n3)cc2o1 [Compound 253]	> 7.00	A (A represents <100 nM)	> 7.00	< 100 nM	> 7.00	> 7.00	> 7.00	> 7.00	< 100 nM	> 7.00	> 7.00
Cc1nc2c(F)c(O)c(-c3ccc4nc(N5CC[C@H](NC6CC6)C5)ccc4n3)cc2o1 [Compound 254]	> 7.00	A (A represents <100 nM)	> 7.00	< 100 nM	> 7.00	> 7.00	> 7.00	> 7.00	< 100 nM	> 7.00	> 7.00
Cc1nc2c(F)c(O)c(-c3ccc4nc(N5CC[C@H](NC(C)(C)C)C5)ccc4n3)cc2o1 [Compound 255]	> 7.00	A (A represents <100 nM)	> 7.00	< 100 nM	> 7.00	> 7.00	> 7.00	> 7.00	< 100 nM	> 7.00	> 7.00
Cc1nc2cc(O)c(-c3ccc4nc(N5CC[C@H](NC6(C)CC6)C5)ccc4n3)cc2o1 [Compound 257]	> 7.00	B (B represents 100-1000 nM)	> 7.00	< 100 nM	> 7.00	> 7.00	> 7.00	> 7.00	< 100 nM	> 7.00	> 7.00
Cc1nc2cc(O)c(-c3ccc4nc(N5CC[C@@H](NC6(C)CC6)C5)ccc4n3)cc2o1 [Compound 258]	6.00 to 7.00	C (C represents 1000-9999 nM)	> 7.00	100 to 1000 nM	6.00 to 7.00	6.00 to 7.00	6.00 to 7.00	6.00 to 7.00	< 100 nM	> 7.00	> 7.00
Cc1c(O)c(-c2ccc3nc(N4CC[C@@H](NC5CC5)C4)ccc3n2)cc2cn(C)nc12 [Compound 259]	> 7.00	B (B represents 100-1000 nM)	> 7.00	< 100 nM	> 7.00	> 7.00	> 7.00	> 7.00	< 100 nM	> 7.00	> 7.00
Cc1c(O)c(-c2ccc3nc(N4CC[C@H](NC5CC5)C4)ccc3n2)cc2cn(C)nc12 [Compound 260]	> 7.00	B (B represents 100-1000 nM)	> 7.00	< 100 nM	> 7.00	> 7.00	> 7.00	> 7.00	< 100 nM	> 7.00	> 7.00

— patent US20250092065A1, “2-(INDAZOL-5-YL)-6-(PIPERIDIN-4-YL)-1,7-NAPHTHYRIDINE DERIVATIVES AND RELATED COMPOUNDS AS MODULATORS FOR SPLICING NUCLEIC ACIDS AND FOR THE TREATMENT OF PROLIFERATIVE DISEASES” (REMIX THERAPEUTICS INC., priority 2022, published 2025)
